Experimental data published in patent US4430435A (priority 1980, dated 1984).
Values joined by “and” are separate entries in the source; they are usually repeats but may differ in a detail not shown here. Identical values can stand only once.

Assays:
[1] = target: T1, calf caudate (Bos taurus, UniProt P20288); assay type: binding
T1 construct: homogenised calf caudate (8 mg/ml); from tissue; host or cells: calf caudate, homogenised

[2] = tested on: β-Adrenergic Receptors; assay type: binding, rat
[3] = target: T1, calf caudate; test: Recovery of haloperidol added to drug-free serum, measured by the 3H-spiperone/calf caudate radioreceptor assay; assay type: binding; conditions: in the presence of TBEP
[4] = Radioreceptor assay for tricyclic antidepressant drugs: binding of 3H-desipramine to talc in the presence of serum or buffer, with blocking agent

T1 sequence (P20288 whole entry): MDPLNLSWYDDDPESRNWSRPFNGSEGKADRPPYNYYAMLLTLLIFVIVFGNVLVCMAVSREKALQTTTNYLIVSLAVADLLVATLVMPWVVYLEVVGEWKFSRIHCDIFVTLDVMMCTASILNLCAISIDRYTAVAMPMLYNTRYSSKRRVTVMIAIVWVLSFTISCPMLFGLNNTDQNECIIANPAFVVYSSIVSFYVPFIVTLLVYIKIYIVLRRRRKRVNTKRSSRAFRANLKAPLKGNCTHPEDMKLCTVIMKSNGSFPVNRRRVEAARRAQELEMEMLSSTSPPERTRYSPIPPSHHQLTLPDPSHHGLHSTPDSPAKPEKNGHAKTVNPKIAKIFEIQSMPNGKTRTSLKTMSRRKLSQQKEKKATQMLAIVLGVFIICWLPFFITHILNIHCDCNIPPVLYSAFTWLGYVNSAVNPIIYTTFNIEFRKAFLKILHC

In the case of CCCCOCCOP(=O)(OCCOCCCC)OCCOCCCC [TBEP, tris(butoxyethyl) phosphate], the “% 3H-Spiperone Bound in Buffer” value [1] is reported as 35.0% and 35.3% and 35.6% and 32.5% and 32.4% and 31.6% and 27.7%, the “% 3H-Spiperone Bound in Serum” value [1] is reported as 23.0% and 26.2% and 27.8% and 29.1% and 27.2% and 26.1% and 24.3% and the “% of 3H-Spiperone Bound, TBEP present” value [1] is reported as 31.9% and 32.2% and 31.5% and 33.8% and 33.5% and 32.8% and 31.8%. For the same molecule, the “% of 3H-Spiperone Bound, TBEP present, mean (X)” value [1] was 32.4%, the “between sample variability (CV) in 3H-spiperone binding” value [1] was “reduced” and the “125I-HYP Bound (CPM) in Buffer” value [2] was 8513 CPM and 8226 CPM and 8729 CPM and 8510 CPM and 8630 CPM and 8412 CPM. The “variability (CV) in the recovery of added haloperidol” value [3] was “reduced”.
With CCOP(=O)(OCC)OCC [TEP, triethyl phosphate] the “% 3H-Spiperone Bound in Buffer” value [1] was 37.9% and 37.5% and 37.1% and 36.6% and 36.8% and 35.0%, the “% 3H-Spiperone Bound in Serum” value [1] was 27.8% and 28.6% and 29.1% and 30.1% and 30.6% and 29.8% and the “% Change in Buffer” value [1] was 0% and -1% and -2% and -3% and -7%. For the same molecule, the “125I-HYP Bound (CPM) in Buffer” value [2] was 8367 CPM and 7988 CPM and 7972 CPM and 7931 CPM and 7613 CPM, the “125I-HYP Bound (CPM) in Serum” value [2] was 3812 CPM and 4131 CPM and 6011 CPM and 5903 CPM and 5881 CPM and the “% Change in Buffer” value [2] was -1% and -5% and -6% and -10%. The “3H-Desipramine Bound (CPM) in Buffer” value ([4]; 50 μg/ml TEP) was 12093 CPM, the “3H-Desipramine Bound (CPM) in Serum” value ([4]; 50 μg/ml TEP) was 7740 CPM and the “% Change in Buffer” value ([4]; 50 μg/ml TEP) was -2%. For the same molecule, the “% Change in Serum” value ([4]; 50 μg/ml TEP) was “+10%”, the “3H-Desipramine Bound (CPM) in Buffer” value ([4]; 100 μg/ml TEP) was 11748 CPM and the “3H-Desipramine Bound (CPM) in Serum” value ([4]; 100 μg/ml TEP) was 8276 CPM. The “% Change in Buffer” value ([4]; 100 μg/ml TEP) was -5%, the “% Change in Serum” value ([4]; 100 μg/ml TEP) was “+18%” and the “3H-Desipramine Bound (CPM) in Buffer” value ([4]; 500 μg/ml TEP) was 13024 CPM. For the same molecule, the “3H-Desipramine Bound (CPM) in Serum” value ([4]; 500 μg/ml TEP) was 9204 CPM, the “% Change in Buffer” value ([4]; 500 μg/ml TEP) was “+6%” and the “% Change in Serum” value ([4]; 500 μg/ml TEP) was “+31%”. For the same molecule, the “3H-Desipramine Bound (CPM) in Buffer” value ([4]; 750 μg/ml TEP) was 11507 CPM, the “3H-Desipramine Bound (CPM) in Serum” value ([4]; 750 μg/ml TEP) was 9198 CPM and the “% Change in Buffer” value ([4]; 750 μg/ml TEP) was -6%. For the same molecule, the “% Change in Serum” value ([4]; 750 μg/ml TEP) was “+30%”, the “3H-Desipramine Bound (CPM) in Buffer” value ([4]; 1000 μg/ml TEP) was 11925 CPM and the “3H-Desipramine Bound (CPM) in Serum” value ([4]; 1000 μg/ml TEP) was 9745 CPM. The “% Change in Buffer” value ([4]; 1000 μg/ml TEP) was -3%, the “% Change in Serum” value ([4]; 1000 μg/ml TEP) was “+39%” and the “3H-Desipramine Bound (CPM) in Buffer” value ([4]; 1250 μg/ml TEP) was 12362 CPM. The “3H-Desipramine Bound (CPM) in Serum” value ([4]; 1250 μg/ml TEP) was 10016 CPM, the “% Change in Buffer” value ([4]; 1250 μg/ml TEP) was 0% and the “% Change in Serum” value ([4]; 1250 μg/ml TEP) was “+43%”.
